Measurements taken from publication PMC5684613 (BioMed Research International, 2017).
Converted amounts (≈) assume the structure as drawn. Read-outs that look alike come from different tables or passages of the source.

Columns and labels:
[1] = In vitro dissolution study, USP II paddle, acetate buffer pH 4.5; type: physicochemical; conditions: acetate buffer pH 4.5, after 90 min, n = 3
Method: Dissolution studies were performed using a USP II Paddle dissolution apparatus (Distek, USA). The prepared SDs were filled in 00 size capsules and placed in Japanese sinkers. The sinkers were then placed in dissolution vessels containing 900 ml of acetate buffer pH 4.5, at 75 rpm and temperature 37 ± 0.5°C. Samples (5 ml) were collected periodically at 15, 30, 45, 60, and 90 min, filtered through a 0.45 μm PVDF filter and replaced with a fresh dissolution medium (5 ml). The concentrations were analyzed at 264 nm by UV spectrophotometer.

[2] = Dissolution studies in FaSSIF and FeSSIF media; type: physicochemical; conditions: n = 3
Method: These two biorelevant media, FaSSIF and FeSSIF, were developed to simulate the condition of the intestine in the fasted and fed states.
Blank FaSSIF was prepared by dissolving 6.186 g NaCl, 4.47 g NaH2PO4, and 0.348 g NaOH in 900 ml of distilled water and the pH was adjusted to 6.5 by using 1 N NaOH or HCl using pH meter. The volume was made up to 1000 ml using distilled water.
Blank FaSSIF medium (500 ml) was taken and 2.240 g SIF powder was added to it and this solution was magnetically stirred until the powder completely dissolved to obtain a clear micellar solution. The volume was made up to 1000 ml using the buffer. The solution was allowed to stand for 2 h; it becomes slightly opalescent and thereafter used. A volume of 500 ml is recommended for dissolution for simulating fasted state condition
Blank FeSSIF was prepared by dissolving 8.65 g glacial acetic acid, 11.874 g NaCl, and 4.04 g NaOH in 900 ml of distilled water and the pH was adjusted to 5.0 by using 1 N NaOH or HCl using pH meter. The volume was made up to 1000 ml using distilled water.
Blank FeSSIF medium (500 ml) was taken and 11.20 g SIF powder was added to it and this solution was magnetically stirred until the powder completely dissolved to obtain a clear micellar solution. The volume was made up to 1000 ml using the buffer and thereafter used. For simulating fed state condition 1 L dissolution fluid is recommended.

[3] = In vitro permeation study by everted gut sac method; type: in vitro ADME, albino Wistar rats; conditions: male, albino Wistar, rat, pH 7.4; mucosal to serosal, n = 3; read-out: Apparent permeability coefficient mean ± SD
Method: (§1) The tissue was continuously aerated (oxygenated) with the aid of an electrical aerator. Intestinal segments of 4 cm were cut and ligated with nylon thread at one end and carefully everted on the glass rod. The everted gut sacs were filled with 500 μl of Tyrode solution and ligated at the other end and then placed inside the test tube containing 15 mL of the test solution continuously bubbled with atmospheric air at 15–20 bubbles per min separately. Test tubes were maintained at temperature 37 ± 0.5°C on water bath. The test solution outside the sac was termed as mucosal fluid, and the solution inside the sac was termed as serosal fluid.

[4] = test system: everted gut sac; experiment: as above; type: in vitro ADME, albino Wistar rats; conditions: after 2 h, serosal fluid, 1 mg/ml DRV outside
Method: as §1

[5] = cited from earlier work
[6] = Oral pharmacokinetic study, fasted and fed state; conditions: for K el / AUC(0-t) / AUC / Cmax: oral; for K el / AUC(0-t) / AUC: 70 mg/kg DRV; for AUC(0-t): AUC0-t; for AUC: AUC0-α; for Cmax: C max, 70 mg/kg DRV (8 mg/kg Ritonavir)
[7] = Phase solubility study of DRV in aqueous carrier solutions
[8] = set-up: method as in Kim et al. [32]; conditions: simultaneous administration of curcumin, rats; ref Kim et al. [32]; cited from earlier work
[9] = set-up: method as in Varma and Panchagnula [30]; conditions: ref Varma and Panchagnula [30], cited from earlier work
[10] = male, albino Wistar, rat, in vivo, po, 70 mg/kg, Group A (fasted)
[11] = male, albino Wistar, rat, in vivo, po, 70 mg/kg, Group B (fed)

SMILES: CC(C)CN(C[C@@H](O)[C@H](Cc1ccccc1)NC(=O)O[C@H]1CO[C@H]2OCC[C@H]21)S(=O)(=O)c1ccc(N)cc1 [DRV, Darunavir]
- Cumulative % drug release (±SD) [1]: 30.9%
- Cumulative % drug release (±SD) in FaSSIF ([2]; after 30 min): 13.8 ± 0.239%
- Cumulative % drug release (±SD) in FaSSIF ([2]; after 60 min): 25.7 ± 0.512%
- Cumulative % drug release (±SD) in FaSSIF ([2]; after 90 min): 31.2 ± 0.425%
- Papp at 120 min, 1 mg/ml [3]: 0.828 ± 0.12 ×10⁻⁶ cm/s
- concentration of the drug inside the sac [4]: 451480 ± 4020 ng/mL
- solubility in water [5]: 150 µg/mL (≈ 274 µM)
- K el ([6]; Group A (fasted)): 0.211 ± 0.002
- K el ([6]; Group B (fed)): 0.228 ± 0.003
- Tmax ([6]; male, albino Wistar, rat, in vivo, po, 70 mg/kg): 1 h
- AUC(0-t) [6, 10]: 116 ng·h/mL
- AUC(0-t) [6, 11]: 258 ng·h/mL
- AUC [6, 10]: 117 ng·h/mL
- AUC [6, 11]: 259 ng·h/mL
- Cmax [6, 10]: 2860 ± 366 ng/mL
- Cmax [6, 11]: 5870 ± 565 ng/mL
- solubility at 72 h [7]: 150 µg/mL (≈ 274 µM)

SMILES: CC(C)(C)NC(=O)[C@@H]1C[C@@H]2CCCC[C@@H]2CN1C[C@@H](O)[C@H](Cc1ccccc1)NC(=O)[C@H](CC(N)=O)NC(=O)c1ccc2ccccc2n1 [Saquinavir]
- increase of oral exposure [8]: 2.7 fold

SMILES: CC(=O)O[C@H]1C(=O)[C@@]2(C)[C@H]([C@H](OC(=O)c3ccccc3)[C@]3(O)C[C@H](OC(=O)[C@H](O)[C@@H](NC(=O)c4ccccc4)c4ccccc4)C(C)=C1C3(C)C)[C@]1(OC(C)=O)CO[C@@H]1C[C@@H]2O [paclitaxel]
- Intrinsic permeability ([9]; in the presence of 1 mg/ml TPGS): 22 ×10⁻⁶ cm/s
- Intrinsic permeability ([9]; without TPGS): 8 ×10⁻⁶ cm/s
